Source: ChEMBL document CHEMBL3046410, “Antioxidant activities and transition metal ion chelating studies of some hydroxyl Schiff base derivatives” (Med Chem Res, 2012)
Active and inactive are the calls of the source. No cut-off for these calls is given here.

Experiments:
[1] = Binding affinity to Fe2+
[2] = Antioxidant activity assessed as inhibition of ABTS free radical; type: functional
[3] = Antioxidant activity assessed as Cu2+ quenching activity; type: functional
[4] = system: Radical scavenging activity; assay: Antioxidant activity assessed as inhibition of DPPH free radical; type: functional
[5] = Antioxidant activity assessed as Fe2+ quenching activity; type: functional
[6] = Binding affinity to Cu2+; type: physicochemical
[7] = Antioxidant activity assessed as Cu2+ chelating activity by fluorescence spectroscopy; type: functional
[8] = Antioxidant activity assessed as Fe2+ chelating activity by fluorescence spectroscopy; type: functional

Row | SMILES | Ka [1] | IC50 [2] [µM] | IC50 [4] [µM] | Ka [6] | KSV [3] | KSV [5] | Activity [7] | Activity [8]
1 | Oc1cccc(/N=C/c2ccccc2)c1 [3-(BENZYLIDENEAMINO)PHENOL] | 1.47 ×10⁴ /M | 33.5 | 466 | 1.39 ×10⁴ /M | 5.2 ×10³ /M | 7.03 ×10³ /M |  | 
2 | CN(C)c1ccc(/C=N/c2ccccc2O)cc1 | 7.3 ×10⁴ /M | 7.07 | 10.8 | 2.36 ×10⁴ /M | 1.53 ×10⁴ /M | 5.19 ×10³ /M |  | 
3 | Oc1ccc(/N=C/c2ccco2)cc1 | 1.81 ×10³ /M | 6.14 | 50.2 | 0.85 ×10³ /M | 1.17 ×10³ /M | 0.9 ×10³ /M |  | 
4 | Oc1ccc(/N=C/c2ccccc2)cc1 [4-(BENZYLIDENEAMINO)PHENOL] | 1.62 ×10⁴ /M | 6.03 | 71.5 | 3.17 ×10³ /M | 3.49 ×10³ /M | 4.09 ×10³ /M |  | 
5 | Cc1cc(C(C)(C)C)c(O)c(C(C)(C)C)c1 [BUTYLATED HYDROXYTOLUENE] |  | 37 | 65.8 |  |  |  |  | 

The next compounds have a lower IC50 [2] than those just listed; values first:

Row | Ka [1] | IC50 [2] [µM] | IC50 [4] [µM] | Ka [6] | SMILES | KSV [3] | KSV [5] | Activity [7] | Activity [8]
6 | 6.48 ×10³ /M | 5.16 | 25 | 1.26 ×10⁴ /M | Oc1ccccc1/C=N/c1ccccc1O | 6.07 ×10⁴ /M | 6.7 ×10⁴ /M | Active | Active
7 | 2.47 ×10⁴ /M | 4.93 | 399 | 1.45 ×10⁴ /M | Oc1ccc(/N=C/C=C/c2ccccc2)cc1 | 2.49 ×10³ /M | 6.6 ×10³ /M |  | 
8 | 9.67 ×10³ /M | 4.68 | 107 | 4.43 ×10³ /M | Oc1ccc(/N=C/c2ccccc2O)cc1 | 7.21 ×10⁴ /M | 1.43 ×10⁵ /M |  | 
9 | 5.03 ×10³ /M | 4.16 | 20.8 | 3.05 ×10³ /M | CN(C)c1ccc(/C=N/c2ccc(O)cc2)cc1 | 2.69 ×10⁴ /M | 7.4 ×10³ /M |  | 
10 | 6.25 ×10³ /M | 3.99 | 143 | 3.51 ×10³ /M | Oc1cccc(/N=C/C=C/c2ccccc2)c1 | 2.8 ×10³ /M | 8.91 ×10³ /M |  | 
11 | 3.21 ×10³ /M | 3.68 | 407 | 3.02 ×10³ /M | Oc1cccc(/N=C/c2ccccc2O)c1 | 1.1 ×10⁵ /M | 2.61 ×10⁴ /M |  | 
